Experimental data: patent US20160303184A1, “VANCOMYCIN-SUGAR CONJUGATES AND USES THEREOF” (JAWAHARLAL NEHRU CENTRE FOR ADVANCED SCIENTIFIC RESEARCH …, priority 2013, published 2016)
Converted amounts (≈) assume the structure as drawn. Where two headings read alike, the source gives them in different places.

Key:
Assay type in all cases: cell-based
[1] = test system: methicillin-resistant S. aureus clinical isolate; experiment: MIC, clinical isolate of methicillin-resistant S. aureus; details: Staphylococcus aureus, read-out: MIC S. aureus
Description: (§1) All test compounds were assayed in a micro-dilution broth format. Stock solutions were made by serially diluting the compounds using autoclaved millipore water or broth media. The antibacterial activity of the compounds was determined against methicillin-sensitive S. aureus (MSSA), methicillin-resistant S. aureus (MRSA), vancomycin-intermediate-resistant S. aureus (VISA), vancomycin-sensitive E. faecium (VSE) and vancomycin-resistant E. faecium (VRE). Bacteria, to be tested, were grown for about 10 h in the suitable media, MSSA, MRSA and VISA were grown in yeast-dextrose broth (about 1 g of beef extract, about 2 g of yeast extract, about 5 g of peptone and about 5 g of NaCl in about 1000 mL of sterile distilled water (pH-7)). For solid media, about 5% agar was used along with above mentioned composition. VSE and VRE were cultured in brain heart infusion broth (Himedia). The bacterial samples were freeze dried and stored at −80° C. About 5 μL of these stocks were added to about 3 mL of the nutrient broth and the culture was grown for about 6 h at about 37° C. prior to the experiments. This 6 h grown culture gives about 10^9 cfu/mL and this was determined by spread plating method. The 6 h grown culture was diluted to give effective cell concentration of about 10^5 cfu/mL which was then used for determining MIC. Compounds were serially diluted, in sterile water (2 fold dilution is employed) in a way that the working concentration was about 10 μM for MSSA, MRSA, and VSE while for VRE and VISA it was about 100 μM. About 50 μL of these serial dilutions were added to the wells of 96 well plate followed by the addition of about 150 μL of bacterial solution. The plates were then incubated at about 37° C., 150 rpm in the incubator and O.D at 600 nm was recorded at an interval of about 10 h and 24 h using TECAN (Infinite series, M200 pro) Plate Reader. Each concentration had triplicate values and the whole experiment was done at least twice and the MIC value was determined by taking the average of triplicate. O. D. values for each concentration and plotting it against concentration. The data was then subjected to sigmoidal fitting. From the curve the MIC value was determined, as the point in the curve where the O. D. was similar to that of control having no bacteria.

[2] = test system: methicillin-resistant S. epidermidis clinical isolate; experiment: MIC, clinical isolate of methicillin-resistant S. epidermidis; details: Staphylococcus epidermidis, read-out: MIC S. epidermidis
[3] = test system: Vancomycin-resistant E. faecium (VanA, ATCC 51559); experiment: MIC, micro-dilution broth, VRE (VanA); details: E. faecium ATCC 51559, read-out: MIC VRE (VanA)
Description: as §1

[4] = test system: methicillin-resistant S. haemolyticus clinical isolate; experiment: MIC, clinical isolate of methicillin-resistant S. haemolyticus; details: Staphylococcus haemolyticus; clinical isolate, methicillin-resistant; read-out: MIC S. haemolyticus
[5] = test system: Methicillin-sensitive S. aureus (MTCC 737); experiment: MIC, micro-dilution broth, MSSA; details: MTCC 737, read-out: MIC MSSA
Description: as §1

[6] = test system: Vancomycin-sensitive E. faecium (ATCC 19634); experiment: MIC, micro-dilution broth, VSE; details: read-out: MIC VSE
Description: as §1

[7] = test system: Methicillin-resistant S. aureus (ATCC 33591); experiment: MIC, micro-dilution broth, MRSA; details: ATCC 33591, read-out: MIC MRSA
Description: as §1

[8] = test system: Vancomycin-resistant E. faecalis (VanA, ATCC 51575); experiment: MIC, micro-dilution broth, VRE (VanB); details: Enterococcus faecalis; E. faecalis ATCC 51575; read-out: MIC VRE (VanB)
[9] = test system: Vancomycin intermediate resistant S. aureus; experiment: MIC, micro-dilution broth, VISA; details: read-out: MIC VISA
Description: as §1

[10] = Enterococcus faecium, ATCC19634, ATCC 19634

SMILES | MIC [1] [µM] | MIC [2] [µM] | MIC ([3]; Enterococcus faecium) [µM] | MIC [4] [µM] | MIC ([5]; Staphylococcus aureus) [µM] | MIC [6, 10] [µM] | MIC ([7]; Staphylococcus aureus) [µM] | MIC [8] [µM] | MIC ([9]; Staphylococcus aureus, VISA) [µM] | MIC [3] [µM] | MIC [5] [µM] | MIC ([6]; ATCC 19634) [µM] | MIC [7] [µM] | MIC [9] [µM]
CCCCCCCCCCCCN[C@]1(C)C[C@H](OC2C(O)[C@@H](O)C(CO)O[C@@H]2Oc2c3cc4cc2Oc2ccc(cc2Cl)[C@@H](O)[C@@H](NC(=O)[C@@H](CC(C)C)NC)C(=O)N[C@@H](CC(N)=O)C(=O)N[C@H]4C(=O)N[C@H]2C(=O)N[C@H](C(=O)N[C@H](C(=O)NCCCNC(=O)[C@H](O)[C@@H](O)[C@H](OC4OC(CO)C(O)C(O)C4O)[C@H](O)CO)c4cc(O)cc(O)c4-c4cc2ccc4O)[C@H](O)c2ccc(c(Cl)c2)O3)OC(C)[C@@H]1O (stereo partly drawn) [Compound 18] | 0.3 (≈ 0.604 µg/mL) | 0.35 (≈ 0.705 µg/mL) | 0.8 (≈ 1.61 µg/mL) | 0.5 (≈ 1.01 µg/mL) | 0.2 (≈ 0.403 µg/mL) | 0.2 (≈ 0.403 µg/mL) | 0.3 (≈ 0.604 µg/mL) | 1 (≈ 2.01 µg/mL) | 0.22 (≈ 0.443 µg/mL) | – | – | – | – | –
CCCCCCCCCCCCN[C@]1(C)C[C@H](OC2C(O)[C@@H](O)C(CO)O[C@@H]2Oc2c3cc4cc2Oc2ccc(cc2Cl)[C@@H](O)[C@@H](NC(=O)[C@@H](CC(C)C)NC)C(=O)N[C@@H](CC(N)=O)C(=O)N[C@H]4C(=O)N[C@H]2C(=O)N[C@H](C(=O)N[C@H](C(=O)O)c4cc(O)cc(O)c4-c4cc2ccc4O)[C@H](O)c2ccc(c(Cl)c2)O3)OC(C)[C@@H]1O (stereo partly drawn) [Compound 16] | – | – | 7 (≈ 11.3 µg/mL) | – | 0.3 (≈ 0.485 µg/mL) | 0.2 (≈ 0.324 µg/mL) | 0.3 (≈ 0.485 µg/mL) | 3.1 (≈ 5.01 µg/mL) | 0.3 (≈ 0.485 µg/mL) | – | – | – | – | –
CN[C@H](CC(C)C)C(=O)N[C@H]1C(=O)N[C@@H](CC(N)=O)C(=O)N[C@H]2C(=O)N[C@H]3C(=O)N[C@H](C(=O)N[C@H](C(=O)NCCOC4OC(CO)C(O)C(O)C4O)c4cc(O)cc(O)c4-c4cc3ccc4O)[C@H](O)c3ccc(c(Cl)c3)Oc3cc2cc(c3O[C@H]2OC(CO)[C@H](O)C(O)C2O[C@H]2C[C@@](C)(N)[C@H](O)C(C)O2)Oc2ccc(cc2Cl)[C@H]1O (stereo partly drawn) [Compound 2] | – | – | – | – | – | – | – | – | – | >100 | 1.2 (≈ 1.99 µg/mL) | 1.2 (≈ 1.99 µg/mL) | 1.4 (≈ 2.32 µg/mL) | 2.02 (≈ 3.34 µg/mL)
CN[C@H](CC(C)C)C(=O)N[C@H]1C(=O)N[C@@H](CC(N)=O)C(=O)N[C@H]2C(=O)N[C@H]3C(=O)N[C@H](C(=O)N[C@H](C(=O)NCCCNC(=O)[C@H](O)[C@@H](O)[C@H](O)[C@H](O)CO)c4cc(O)cc(O)c4-c4cc3ccc4O)[C@H](O)c3ccc(c(Cl)c3)Oc3cc2cc(c3O[C@H]2OC(CO)[C@H](O)C(O)C2O[C@H]2C[C@@](C)(N)[C@H](O)C(C)O2)Oc2ccc(cc2Cl)[C@H]1O (stereo partly drawn) [Compound 3] | – | – | 54 (≈ 90.9 µg/mL) | – | 0.6 (≈ 1.01 µg/mL) | 0.5 (≈ 0.842 µg/mL) | 0.7 (≈ 1.18 µg/mL) | – | 0.88 (≈ 1.48 µg/mL) | – | – | – | – | –
CN[C@H](CC(C)C)C(=O)N[C@H]1C(=O)N[C@@H](CC(N)=O)C(=O)N[C@H]2C(=O)N[C@H]3C(=O)N[C@H](C(=O)N[C@H](C(=O)NCCCNCC(O)C(O)C(OC4OC(CO)C(O)C(O)C4O)C(O)CO)c4cc(O)cc(O)c4-c4cc3ccc4O)[C@H](O)c3ccc(c(Cl)c3)Oc3cc2cc(c3O[C@H]2OC(CO)[C@H](O)C(O)C2O[C@H]2C[C@@](C)(N)[C@H](O)C(C)O2)Oc2ccc(cc2Cl)[C@H]1O (stereo partly drawn) [Compound 5] | – | – | > 100 | – | 1 (≈ 1.83 µg/mL) | 0.66 (≈ 1.21 µg/mL) | 1 (≈ 1.83 µg/mL) | – | 1.08 (≈ 1.98 µg/mL) | – | – | – | – | –
